# Test results reported in ChEMBL document CHEMBL4229386, “Benzopyrroloxazines containing a bridgehead nitrogen atom as promising scaffolds for the achievement of biologically active agents” (Eur J Med Chem, 2018).
# Legend:
# Acetylcholinesterase = biological target: T1, Acetylcholinesterase (Bos taurus, UniProt P23795); test: Inhibition of bovine AChE using ACH iodide as substrate preincubated for 60 mins followed by substrate addition and measured after 1 hrs by spectrophotometeric analysis
# T1 sequence (P23795 whole entry): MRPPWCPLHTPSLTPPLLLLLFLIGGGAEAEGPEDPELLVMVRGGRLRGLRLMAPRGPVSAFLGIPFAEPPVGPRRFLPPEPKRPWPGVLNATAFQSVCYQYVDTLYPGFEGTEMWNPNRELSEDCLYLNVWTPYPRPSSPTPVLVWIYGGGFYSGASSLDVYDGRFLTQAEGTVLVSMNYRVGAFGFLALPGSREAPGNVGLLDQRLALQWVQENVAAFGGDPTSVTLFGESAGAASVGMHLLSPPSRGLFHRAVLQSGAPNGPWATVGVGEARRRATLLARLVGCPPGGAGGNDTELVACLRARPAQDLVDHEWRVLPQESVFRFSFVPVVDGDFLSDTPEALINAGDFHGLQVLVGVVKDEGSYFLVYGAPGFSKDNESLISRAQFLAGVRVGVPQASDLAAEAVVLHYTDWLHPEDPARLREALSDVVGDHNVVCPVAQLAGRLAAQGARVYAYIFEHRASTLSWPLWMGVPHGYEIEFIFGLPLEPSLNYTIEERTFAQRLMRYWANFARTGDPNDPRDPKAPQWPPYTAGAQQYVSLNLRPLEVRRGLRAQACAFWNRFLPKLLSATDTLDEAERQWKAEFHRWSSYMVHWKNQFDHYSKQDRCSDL
# Rattus norvegicus = organism: Rattus norvegicus; test: Analgesic activity in rat assessed as inhibition of acetic acid-induced writhing; type: functional
# Hepatitis C virus = test: Antiviral activity against HCV replicon after 3 days by RT-PCR analysis; type: functional, organism-based, Hepacivirus hominis; settings: 72 h
# Staphylococcus aureus = test: Antimicrobial activity against Staphylococcus aureus; type: functional
# Escherichia coli = test: Antimicrobial activity against Escherichia coli; type: functional
# [1] = biological target: T2, RNA-directed RNA polymerase (Hepacivirus hominis, UniProt O39930); test: Inhibition of HCV genotype 1b NS5B RNA dependent RNA polymerase expressed in Escherichia coli BL21 (DE3) using biotinylated oligo-dT12 primer as substrate after 60 mins; parameters: species or system Hepatitis C virus subtype 1b
# [2] = biological target: Sodium channel protein type 9 subunit alpha (Rattus norvegicus, UniProt O08562); test: Inhibition of Nav1.7 in rat dorsal root ganglions at -60 mV holding potential by patch clamp assay
# [3] = biological target: T2, RNA-directed RNA polymerase; test: Inhibition of HCV NS5B RNA dependent RNA polymerase
# [4] = biological target: Methionine aminopeptidase 2 (Homo sapiens, UniProt P50579); test: Inhibition of human recombinant MetAP2 expressed in Sf9 insect cells using MAS as substrate after 30 mins by fluorometeric analysis
# [5] = Inhibition of [33P]-ATP binding to Escherichia coli NR2 after 15 mins by liquid scintillation analysis
# Staphylococcus = test: Antimicrobial activity against Staphylococcus; type: functional
# T2 sequence (O39930 whole entry): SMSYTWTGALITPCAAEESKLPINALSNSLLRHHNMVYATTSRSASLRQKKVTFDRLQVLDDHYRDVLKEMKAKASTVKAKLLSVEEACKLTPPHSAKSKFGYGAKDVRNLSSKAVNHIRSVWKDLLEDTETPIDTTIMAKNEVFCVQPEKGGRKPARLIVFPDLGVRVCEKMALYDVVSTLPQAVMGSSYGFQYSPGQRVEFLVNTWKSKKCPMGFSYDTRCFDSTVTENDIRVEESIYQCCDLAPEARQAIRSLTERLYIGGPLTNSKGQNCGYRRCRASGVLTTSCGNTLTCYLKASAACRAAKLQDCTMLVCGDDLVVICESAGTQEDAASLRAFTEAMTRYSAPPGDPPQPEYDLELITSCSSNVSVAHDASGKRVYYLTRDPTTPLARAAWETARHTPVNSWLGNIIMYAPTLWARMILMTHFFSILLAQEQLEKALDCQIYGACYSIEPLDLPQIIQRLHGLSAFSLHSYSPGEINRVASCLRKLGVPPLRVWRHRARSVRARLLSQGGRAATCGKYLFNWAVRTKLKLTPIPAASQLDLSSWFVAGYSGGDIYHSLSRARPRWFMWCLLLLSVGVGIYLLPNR
# Sodium channel protein type 9 subunit alpha, sequence (O08562 whole entry): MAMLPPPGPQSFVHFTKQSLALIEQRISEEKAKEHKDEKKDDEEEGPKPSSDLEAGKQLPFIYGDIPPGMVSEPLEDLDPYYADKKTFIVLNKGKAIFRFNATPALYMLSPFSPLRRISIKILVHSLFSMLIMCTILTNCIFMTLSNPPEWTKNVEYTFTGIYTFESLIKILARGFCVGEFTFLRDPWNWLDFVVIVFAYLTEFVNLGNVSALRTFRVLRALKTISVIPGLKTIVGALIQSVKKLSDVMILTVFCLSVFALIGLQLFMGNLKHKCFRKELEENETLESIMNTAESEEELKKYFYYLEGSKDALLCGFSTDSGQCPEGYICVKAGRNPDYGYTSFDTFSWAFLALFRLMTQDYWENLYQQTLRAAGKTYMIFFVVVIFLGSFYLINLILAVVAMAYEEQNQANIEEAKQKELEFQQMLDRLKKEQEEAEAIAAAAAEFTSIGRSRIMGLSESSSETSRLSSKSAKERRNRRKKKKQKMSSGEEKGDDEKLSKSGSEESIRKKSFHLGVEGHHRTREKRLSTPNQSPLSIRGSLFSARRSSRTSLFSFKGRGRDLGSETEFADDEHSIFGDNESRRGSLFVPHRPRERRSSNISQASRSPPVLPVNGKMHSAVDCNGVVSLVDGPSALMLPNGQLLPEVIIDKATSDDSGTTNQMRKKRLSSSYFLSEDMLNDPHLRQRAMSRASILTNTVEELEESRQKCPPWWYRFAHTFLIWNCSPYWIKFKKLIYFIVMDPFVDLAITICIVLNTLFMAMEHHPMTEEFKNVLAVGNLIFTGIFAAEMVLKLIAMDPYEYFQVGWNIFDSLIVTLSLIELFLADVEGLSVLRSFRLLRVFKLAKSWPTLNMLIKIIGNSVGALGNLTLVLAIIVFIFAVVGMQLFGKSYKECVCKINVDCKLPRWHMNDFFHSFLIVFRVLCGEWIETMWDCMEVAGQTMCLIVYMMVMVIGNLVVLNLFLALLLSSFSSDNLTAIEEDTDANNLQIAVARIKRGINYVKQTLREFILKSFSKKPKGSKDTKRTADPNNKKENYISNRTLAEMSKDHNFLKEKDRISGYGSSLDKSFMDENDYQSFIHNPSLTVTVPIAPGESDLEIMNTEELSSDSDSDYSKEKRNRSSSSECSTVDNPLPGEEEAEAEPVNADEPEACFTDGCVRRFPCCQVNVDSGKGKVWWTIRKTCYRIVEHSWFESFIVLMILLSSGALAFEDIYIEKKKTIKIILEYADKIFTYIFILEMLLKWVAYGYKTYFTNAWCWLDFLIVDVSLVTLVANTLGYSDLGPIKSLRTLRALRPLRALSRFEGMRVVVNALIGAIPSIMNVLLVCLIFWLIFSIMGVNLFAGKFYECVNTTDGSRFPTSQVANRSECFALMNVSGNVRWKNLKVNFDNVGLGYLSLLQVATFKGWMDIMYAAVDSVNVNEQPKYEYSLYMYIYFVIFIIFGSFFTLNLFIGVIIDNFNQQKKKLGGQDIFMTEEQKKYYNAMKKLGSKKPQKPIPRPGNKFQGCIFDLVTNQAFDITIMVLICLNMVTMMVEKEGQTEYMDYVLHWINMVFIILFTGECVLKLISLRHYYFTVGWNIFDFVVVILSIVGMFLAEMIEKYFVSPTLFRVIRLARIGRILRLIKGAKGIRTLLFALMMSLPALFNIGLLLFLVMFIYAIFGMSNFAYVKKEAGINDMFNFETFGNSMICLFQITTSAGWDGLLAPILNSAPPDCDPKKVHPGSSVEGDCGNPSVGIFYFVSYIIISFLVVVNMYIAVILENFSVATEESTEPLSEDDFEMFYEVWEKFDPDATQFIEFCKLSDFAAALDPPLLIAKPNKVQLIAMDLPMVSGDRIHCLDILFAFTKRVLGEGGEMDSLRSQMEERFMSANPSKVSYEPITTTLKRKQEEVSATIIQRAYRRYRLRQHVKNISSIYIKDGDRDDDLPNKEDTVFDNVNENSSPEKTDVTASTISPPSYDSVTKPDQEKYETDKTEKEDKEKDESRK
# Methionine aminopeptidase 2, sequence (P50579 whole entry): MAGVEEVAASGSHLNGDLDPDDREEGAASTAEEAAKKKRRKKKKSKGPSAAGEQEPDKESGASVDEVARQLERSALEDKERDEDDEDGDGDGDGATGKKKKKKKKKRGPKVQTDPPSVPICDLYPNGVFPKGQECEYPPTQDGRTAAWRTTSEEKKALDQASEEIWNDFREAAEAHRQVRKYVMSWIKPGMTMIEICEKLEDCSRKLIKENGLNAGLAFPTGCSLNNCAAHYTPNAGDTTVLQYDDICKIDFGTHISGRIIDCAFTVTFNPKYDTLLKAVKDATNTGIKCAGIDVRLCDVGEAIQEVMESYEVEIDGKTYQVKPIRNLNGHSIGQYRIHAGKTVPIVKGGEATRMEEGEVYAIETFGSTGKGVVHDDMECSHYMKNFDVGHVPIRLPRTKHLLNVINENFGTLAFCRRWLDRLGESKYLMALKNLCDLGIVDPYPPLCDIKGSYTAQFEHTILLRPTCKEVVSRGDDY
smiles,measurement,setting,value
CC(=O)OC12C=CC(=O)N1c1ccccc1C(=O)O2 (stereo unspecified),Ki,Acetylcholinesterase,4700 nM
Cc1c(C(=O)c2ccc3ncccc3c2)c2cccc3c2n1C(CN1CCOCC1)CO3 (stereo unspecified),ED50,Rattus norvegicus,3.5 mg/kg
COC(=O)NC(C(=O)N1CCCC1c1ncc(-c2ccc3c(c2)-n2ccc4cc(-c5cnc(C6CCCN6C(=O)C(NC(=O)OC)C(C)C)[nH]5)cc(c42)O3)[nH]1)C(C)C (stereo unspecified),EC50,Hepatitis C virus,0.01 nM
CCCc1c(O)cc2oc3cccn3c(=O)c2c1O,MIC,Staphylococcus aureus,2 µg/mL
same,MIC,Escherichia coli,2 µg/mL
CN(C)S(=O)(=O)NC(=O)c1ccc2c(C3CCCCC3)c(-c3ccccc3)n3c2c1OCC3,IC50,[1],< 10000 nM
COc1c(O)cccc1C(=O)N1CCC2(CC1)Oc1ccccc1-n1c(C#N)ccc12,IC50,[2],< 2000 nM
COC(=O)NC(C(=O)N1CCCC1c1ncc(-c2ccc3c(c2)OCn2c-3c(F)c3cc(-c4cnc(C5CCCN5C(=O)C(NC(=O)OC)C(C)C)[nH]4)ccc32)[nH]1)C(C)C (stereo unspecified),IC50,[3],0.001 nM
CCN(CC)C/C=C\c1cc(F)ccc1S(=O)(=O)Nc1ccc2c(c1C(=O)O)OCc1cccn1-2,IC50,[4],< 50 nM
CCCc1c(O)cc2oc3cc(Cl)cn3c(=O)c2c1O,IC50,[5],20000 nM
same,MIC,Staphylococcus,0.2 to 0.78 µg/mL
